Results as given in ChEMBL document CHEMBL5726231, “Btk inhibitors” (2017).

Biological target: Tyrosine-protein kinase BTK (Homo sapiens, UniProt Q06187)
Test: To each well of a black non-binding surface Corning 384-well microplate (Corning Catalog #3820), 5 nL of compound (2000 fold dilution in final assay volume of 10 μL) was dispensed, followed by the addition of 7.5 μL of 1× kinase buffer (50 mM Hepes 7.5, 10 mM MgCl2, 0.01% Brij-35, 1 mM EGTA, 0.05% BSA & 1 mM DTT) containing 5.09 pg/μL (66.67 pM) of BTK enzyme (recombinant protein from baculovirus-transfected Sf9 cells: full-length BTK, 6HIS-tag cleaved). Following a 60 minute compound & enzyme incubation, each reaction was initiated by the addition of 2.5 μL 1× kinase buffer containing 8 μM biotinylated A5 peptide (Biotin-EQEDEPEGDYFEWLE-NH2), and 100 μM ATP. The final reaction in each well of 10 μL consists of 50 pM hBTK, 2 μM biotin-A5-peptide, and 25 μM ATP. Phosphorylation reactions were allowed to proceed for 120 minutes. Reactions were immediately quenched by the addition of 20 uL of 1× quench buffer (15 mM EDTA, 25 mM Hepes 7.3, and 0.1% Triton X-100) containing detection reagents (0.626 nM of LANCE-Eu-W1024-anti-phosphoTyrosine antibody, PerkinElmer and 86.8 nM of Streptavidin-conjugated Dylight 650, Dyomics/ThermoFisher Scientific). After 60 minutes incubation with detection reagents, reaction plates were read on a PerkinElmer EnVision plate reader using standard TR-FRET protocol. Briefly, excitation of donor molecules (Eu-chelate:anti-phospho-antibody) with a laser light source at 337 nm produces energy that can be transferred to Dylight-650 acceptor molecules if this donor:acceptor pair is within close proximity. Fluorescence intensity at both 665 nm (acceptor) and 615 nm (donor) are measured and a TR-FRET ratio calculated for each well (acceptor intensity/donor intensity).

Sequence of Tyrosine-protein kinase BTK (Q06187 whole entry): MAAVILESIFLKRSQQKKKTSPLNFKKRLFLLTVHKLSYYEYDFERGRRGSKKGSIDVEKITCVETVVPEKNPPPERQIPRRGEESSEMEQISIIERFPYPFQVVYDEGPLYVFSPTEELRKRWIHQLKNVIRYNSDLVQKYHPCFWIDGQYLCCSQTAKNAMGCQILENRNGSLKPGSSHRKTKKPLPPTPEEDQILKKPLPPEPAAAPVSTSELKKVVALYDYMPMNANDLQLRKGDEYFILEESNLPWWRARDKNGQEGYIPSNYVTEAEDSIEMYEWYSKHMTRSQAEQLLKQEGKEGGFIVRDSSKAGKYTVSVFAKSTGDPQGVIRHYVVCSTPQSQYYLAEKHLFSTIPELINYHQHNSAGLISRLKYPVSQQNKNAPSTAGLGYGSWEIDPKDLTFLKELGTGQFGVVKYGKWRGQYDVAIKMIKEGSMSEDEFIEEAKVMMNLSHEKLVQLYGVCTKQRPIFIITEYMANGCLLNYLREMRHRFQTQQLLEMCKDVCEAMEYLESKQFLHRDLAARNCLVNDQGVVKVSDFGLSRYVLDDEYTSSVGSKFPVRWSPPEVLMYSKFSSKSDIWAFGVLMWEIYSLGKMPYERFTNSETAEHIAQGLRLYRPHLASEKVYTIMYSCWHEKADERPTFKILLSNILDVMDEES

IC50 [nM] | Structure (SMILES)
2 | CCC(=O)N1CCC[C@@H](c2nn(-c3ccc(Oc4ccccc4)cc3)c3c(N)nccc23)C1
0.66 | C=CC(=O)N1CCC[C@@H](c2nn(-c3ccc(Oc4ccccc4)cc3)c3c(N)nccc23)C1
1 | C[C@@H](O)C(=O)N1CCC[C@@H](c2nn(-c3ccc(Oc4ccccc4)cc3)c3c(N)nccc23)C1
30.8 | Nc1nccc2c([C@@H]3CCCNC3)nn(-c3ccc(Oc4ccccc4)cc3)c12
2 | CC(=O)N1CCC[C@@H](c2nn(-c3ccc(Oc4ccccc4)cc3)c3c(N)nccc23)C1
3.7 | CC(C)C(=O)N1CCC[C@@H](c2nn(-c3ccc(Oc4ccccc4)cc3)c3c(N)nccc23)C1
2.3 | C[C@H](O)C(=O)N1CCC[C@@H](c2nn(-c3ccc(Oc4ccccc4)cc3)c3c(N)nccc23)C1

Second part, the compound before the results:

Structure (SMILES) | IC50 [nM]
COCCC(=O)N1CCC[C@@H](c2nn(-c3ccc(Oc4ccccc4)cc3)c3c(N)nccc23)C1 | 1.8
Nc1nccc2c([C@@H]3CCCN(C(=O)C4CC(F)(F)C4)C3)nn(-c3ccc(Oc4ccccc4)cc3)c12 | 8.9
CO[C@H](C)C(=O)N1CCC[C@@H](c2nn(-c3ccc(Oc4ccccc4)cc3)c3c(N)nccc23)C1 | 5.5
Nc1nccc2c([C@@H]3CCCN(C(=O)C4CC4)C3)nn(-c3ccc(Oc4ccccc4)cc3)c12 | 3.3
Nc1nccc2c([C@@H]3CCCN(C(=O)C4(O)CC4)C3)nn(-c3ccc(Oc4ccccc4)cc3)c12 | 3
COCC(=O)N1CCC[C@@H](c2nn(-c3ccc(Oc4ccccc4)cc3)c3c(N)nccc23)C1 | 2.7
Cc1ncn(C)c1C(=O)N1CCC[C@@H](c2nn(-c3ccc(Oc4ccccc4)cc3)c3c(N)nccc23)C1 | 9.2
Nc1nccc2c([C@@H]3CCCN(C(=O)C4CCC4)C3)nn(-c3ccc(Oc4ccccc4)cc3)c12 | 3.5
COCCOCC(=O)N1CCC[C@@H](c2nn(-c3ccc(Oc4ccccc4)cc3)c3c(N)nccc23)C1 | 3.5
CC1(C(=O)N2CCC[C@@H](c3nn(-c4ccc(Oc5ccccc5)cc4)c4c(N)nccc34)C2)CC1 | 3.3
Cc1noc(C)c1C(=O)N1CCC[C@@H](c2nn(-c3ccc(Oc4ccccc4)cc3)c3c(N)nccc23)C1 | 13.7
CO[C@@H](C)C(=O)N1CCC[C@@H](c2nn(-c3ccc(Oc4ccccc4)cc3)c3c(N)nccc23)C1 | 3.9
CC#CC(=O)N1CCC[C@@H](c2nn(-c3ccc(Oc4ccccc4)cc3)c3c(N)nccc23)C1 | 1
Cn1cncc1C(=O)N1CCC[C@@H](c2nn(-c3ccc(Oc4ccccc4)cc3)c3c(N)nccc23)C1 | 2.7
N#CC1(C(=O)N2CCC[C@@H](c3nn(-c4ccc(Oc5ccccc5)cc4)c4c(N)nccc34)C2)CC1 | 11.8
CCOCC(=O)N1CCC[C@@H](c2nn(-c3ccc(Oc4ccccc4)cc3)c3c(N)nccc23)C1 | 3.5
